One test has as its system HCT116 WT cells. Briefly: HCT116 proliferation assay, WT cells (CellTiter-Glo, 6 days). The test is classed as cell-based. Particulars: Homo sapiens, HCT-116, 144 h, read-out: Prolif_HCT116-WT IC50. The gist of the method:
(§1)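 Both lines grow in RPMI 1640 containing 10% fetal bovine serum. After an overnight rest, they receive compound at up to 1 or 10 µM in threefold serial dilutions, with vehicle wells holding DMSO only.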

A further test deals with HCT116 MTAP null cells. Briefly: HCT116 proliferation assay, MTAP null cells (CellTiter-Glo, 6 days). Particulars: HCT116-MTAP null, 144 h, read-out: Protif_ HCT116-MTAP null IC50. The test is classed as cell-based. The method in brief:
as §1

Some results are limits rather than exact numbers.

`Cc1cc2cc(C(=O)N(Cc3ccc(Br)nn3)[C@@H]3CCCn4ncnc43)c(F)cc2nc1N` [Example 757, (R)-2-amino-N-((6-bromopyridazin-3-yl)methyl)-7-fluoro-3-methyl-N-(5,6,7,8-tetrahydro-[1,2,4]triazolo[1,5-a]pyridin-8-yl)quinoline-6-carboxamide]: the IC50 was 8870 nM with HCT116 WT cells and 313 nM with HCT116 MTAP null cells.

As to `Nc1nc2ccc(C(=O)N(Cc3ccc(Br)nn3)[C@@H]3CCCn4ncnc43)cc2cc1Br` [Example 758, (R)-2-amino-3-bromo-N-((6-bromopyridazin-3-yl)methyl)-N-(5,6,7,8-tetrahydro-[1,2,4]triazolo[1,5-a]pyridin-8-yl)quinoline-6-carboxamide], the figures for the IC50 in the test with HCT116 WT cells and in the test on HCT116 MTAP null cells were greater than 10000 nM and 337 nM, respectively.

As to `CC[C@H](c1ncccn1)N(Cc1ccc(C#N)cn1)C(=O)c1ccc2nc(N)c(Br)cc2c1` [Example 759, (R)-2-amino-3-bromo-N-((5-cyanopyridin-2-yl)methyl)-N-(1-(pyrimidin-2-yl)propyl)quinoline-6-carboxamide], the IC50 was greater than 10000 nM with HCT116 WT cells and 293 nM with HCT116 MTAP null cells.

`CC[C@H](c1ncccn1)N(Cc1ccc(C#N)cn1)C(=O)c1ccc2nc(N)c(I)cc2c1` [Example 760, (R)-2-amino-N-((5-cyanopyridin-2-yl)methyl)-3-iodo-N-(1-(pyrimidin-2-yl)propyl)quinoline-6-carboxamide]: the results for the IC50 in the test on HCT116 WT cells and in the test on HCT116 MTAP null cells were 2930 nM and 100 nM, respectively.

As for `Cc1cc2cc(C(=O)N(Cc3ccc(C4CC4)nn3)[C@H](C)c3ncccn3)ccc2nc1N` [Example 761, (R)-2-amino-N-((6-cyclopropylpyridazin-3-yl)methyl)-3-methyl-N-(1-(pyrimidin-2-yl)ethyl)quinoline-6-carboxamide], the IC50 in the test with HCT116 WT cells amounted to 1350 nM; in the test with HCT116 MTAP null cells, 64 nM.

For `C[C@H](c1ncccn1)N(Cc1ccc(C2CC2)nn1)C(=O)c1ccc2nc(N)c(Br)cc2c1` [Example 762, (R)-2-amino-3-bromo-N-((6-cyclopropylpyridazin-3-yl)methyl)-N-(1-(pyrimidin-2-yl)ethyl)quinoline-6-carboxamide], the half-maximal inhibitory concentration (IC50) with HCT116 WT cells came to 8800 nM; in the test on HCT116 MTAP null cells, 180 nM.

Consider `C[C@H](c1ncccn1)N(Cc1ccc(C2CC2)nn1)C(=O)c1ccc2nc(N)c(I)cc2c1` [Example 763, (R)-2-amino-N-((6-cyclopropylpyridazin-3-yl)methyl)-3-iodo-N-(1-(pyrimidin-2-yl)ethyl)quinoline-6-carboxamide], for which the results for the IC50 in the test with HCT116 WT cells and with HCT116 MTAP null cells were 4340 nM and 57 nM, respectively.

Consider `Cc1cc2cc(C(=O)N(Cc3ccc(N4CCOCC4)cn3)[C@H](C)c3ncccn3)ccc2nc1N` [Example 764, (R)-2-amino-3-methyl-N-((5-morpholinopyridin-2-yl)methyl)-N-(1-(pyrimidin-2-yl)ethyl)quinoline-6-carboxamide], for which the IC50 with HCT116 WT cells was found to be 4220 nM; in the test with HCT116 MTAP null cells it was 287 nM.

`C[C@H](c1ncccn1)N(Cc1ccc(C(F)(F)F)cn1)C(=O)c1ccc2nc(N)ccc2c1` [Example 765, (R)-2-amino-N-(1-(pyrimidin-2-yl)ethyl)-N-((5-(trifluoromethyl)pyridin-2-yl)methyl)quinoline-6-carboxamide]: the 50% inhibitory concentration (IC50) in the test with HCT116 WT cells was 512 nM; in the test with HCT116 MTAP null cells, 180 nM.

As to `CC(c1cscn1)N(Cc1ccc(C(F)(F)F)nn1)C(=O)c1cnc2nc(N)c(Br)cc2c1` (stereo not drawn) [Example 766, 7-amino-6-bromo-N-(1-(thiazol-4-yl)ethyl)-N-((6-(trifluoromethyl)pyridazin-3-yl)methyl)-1,8-naphthyridine-3-carboxamide], the figures for the IC50 with HCT116 WT cells and with HCT116 MTAP null cells were 5900 nM and 161 nM, respectively.

On to `C[C@H](c1ncccn1)N(Cc1ccc(Br)nn1)C(=O)c1ccc2nc(N)c(I)cc2c1` [Example 767, (R)-2-amino-N-((6-bromopyridazin-3-yl)methyl)-3-iodo-N-(1-(pyrimidin-2-yl)ethyl)quinoline-6-carboxamide], for which the figures for the IC50 with HCT116 WT cells and with HCT116 MTAP null cells were 3550 nM and 56 nM, respectively.

`C[C@H](c1ncccn1)N(Cc1ccc(Cl)cn1)C(=O)c1cnc2nc(N)c(I)cc2c1` [Example 768, (R)-7-amino-N-((5-chloropyridin-2-yl)methyl)-6-iodo-N-(1-(pyrimidin-2-yl)ethyl)-1,8-naphthyridine-3-carboxamide]: the IC50 amounted to 3960 nM in the test on HCT116 WT cells and 116 nM in the test on HCT116 MTAP null cells.

Regarding `C[C@H](c1ncccn1)N(Cc1ccc(C#N)c(Cl)n1)C(=O)c1ccc2nc(N)c(I)cc2c1` [Example 769, (R)-2-amino-N-((6-chloro-5-cyanopyridin-2-yl)methyl)-3-iodo-N-(1-(pyrimidin-2-yl)ethyl)quinoline-6-carboxamide], the IC50 is 5010 nM with HCT116 WT cells and 52 nM in the test with HCT116 MTAP null cells.

Take `Cc1cc2c(C)c(C(=O)N(Cc3ccc(C(F)(F)F)cn3)[C@H](C)c3ncccn3)ccc2nc1N` [Example 770, 2-amino-3,5-dimethyl-N-((1R)-1-(2-pyrimidinyl)ethyl)-N-((5-(trifluoromethyl)-2-pyridinyl)methyl)-6-quinolinecarboxamide]: the results for the half-maximal inhibitory concentration (IC50) in the test with HCT116 WT cells and in the test with HCT116 MTAP null cells were 4750 nM and 132 nM, respectively.

As for `COC[C@@H](C)N(Cc1ccc(C(F)(F)F)cn1)C(=O)c1ccc2nc(N)c(C)cc2c1C` [Example 771, 2-amino-N-((2R)-1-methoxy-2-propanyl)-3,5-dimethyl-N-((5-(trifluoromethyl)-2-pyridinyl)methyl)-6-quinolinecarboxamide], the results for the IC50 in the test on HCT116 WT cells and in the test with HCT116 MTAP null cells were greater than 10000 nM and 270 nM, respectively.

For the compound `CCOc1ccc(CN(C(=O)c2cnc3nc(N)c(I)cc3c2)[C@H](C)c2ncccn2)nn1` [Example 772, (R)-7-amino-N-((6-ethoxypyridazin-3-yl)methyl)-6-iodo-N-(1-(pyrimidin-2-yl)ethyl)-1,8-naphthyridine-3-carboxamide], the IC50 in the test on HCT116 WT cells amounted to 17600 nM; in the test with HCT116 MTAP null cells, 437 nM.

For the compound `C[C@H](c1ncccn1)N(Cc1ccc(Cl)nn1)C(=O)c1ccc2nc(N)c(Br)cc2c1` [Example 773, (R)-2-amino-3-bromo-N-((6-chloropyridazin-3-yl)methyl)-N-(1-(pyrimidin-2-yl)ethyl)quinoline-6-carboxamide], the values for the IC50 in the test with HCT116 WT cells and with HCT116 MTAP null cells were greater than 10000 nM and 304 nM, respectively.

For the compound `N#CC[C@@H](C1CC1)N(Cc1ccc(C#N)cn1)C(=O)c1ccc2nc(N)c(Br)cc2c1` [Example 776, (S)-2-amino-3-bromo-N-(2-cyano-1-cyclopropylethyl)-N-((5-cyanopyridin-2-yl)methyl)quinoline-6-carboxamide], the half-inhibitory concentration (IC50) in the test on HCT116 WT cells amounted to 7220 nM; with HCT116 MTAP null cells, 195 nM.

For `C[C@H](c1ncccn1)N(Cc1cc2c(cn1)OCCC2)C(=O)c1ccc2nc(N)c(Br)cc2c1` [Example 777, (R)-2-amino-3-bromo-N-((3,4-dihydro-2H-pyrano[2,3-c]pyridin-6-yl)methyl)-N-(1-(pyrimidin-2-yl)ethyl)quinoline-6-carboxamide], the results for the IC50 in the test with HCT116 WT cells and in the test with HCT116 MTAP null cells were greater than 10000 nM and 372 nM, respectively.

Regarding `N#CC[C@@H](C1CC1)N(Cc1ccc(C(F)(F)F)cn1)C(=O)c1ccc2nc(N)c(Br)cc2c1` [Example 778, (S)-2-amino-3-bromo-N-(2-cyano-1-cyclopropylethyl)-N-((5-(trifluoromethyl)pyridin-2-yl)methyl)quinoline-6-carboxamide], the IC50 in the test on HCT116 WT cells was found to be 2050 nM; in the test with HCT116 MTAP null cells, 72 nM.

`COC[C@@H](C)N(Cc1ccc(OC)nn1)C(=O)c1ccc2nc(N)c(C)cc2c1` [Example 789, 2-amino-N-((2R)-1-methoxy-2-propanyl)-N-((6-methoxy-3-pyridazinyl)methyl)-3-methyl-6-quinolinecarboxamide]: the IC50 is 6150 nM with HCT116 WT cells and 162 nM in the test with HCT116 MTAP null cells.

Regarding `Cc1cc2cc(C(=O)N(Cc3ccc(OCC(F)(F)F)nn3)[C@H](C)c3ncccn3)ccc2nc1N` [Example 790, (R)-2-amino-3-methyl-N-(1-(pyrimidin-2-yl)ethyl)-N-((6-(2,2,2-trifluoroethoxy)pyridazin-3-yl)methyl) quinoline-6-carboxamide], the IC50 came out at 5160 nM in the test on HCT116 WT cells and 156 nM with HCT116 MTAP null cells.

With `Cc1cc2cc(C(=O)N(Cc3ccc(OC(F)(F)F)nn3)C(C)c3ncccn3)ccc2nc1N` (stereo not drawn) [Example 791, 2-amino-3-methyl-N-(1-(pyrimidin-2-yl)ethyl)-N-((6-(trifluoromethoxy)pyridazin-3-yl)methyl)quinoline-6-carboxamide], the values for the IC50 in the test with HCT116 WT cells and in the test with HCT116 MTAP null cells were 1720 nM and 60 nM, respectively.

Turning to `Cc1cc2cc(C(=O)N(Cc3cc4ccccc4cn3)C(C)c3ncccn3)ccc2nc1N` (stereo not drawn) [Example 792, 2-amino-N-(isoquinolin-3-ylmethyl)-3-methyl-N-(1-(pyrimidin-2-yl)ethyl)quinoline-6-carboxamide], the IC50 came to 3840 nM in the test on HCT116 WT cells and 119 nM in the test with HCT116 MTAP null cells.

For the compound `C[C@H](c1ncccn1)N(Cc1ccc(OCC(F)(F)F)nn1)C(=O)c1cnc2nc(N)c(Br)cc2c1` [Example 793, (R)-7-amino-6-bromo-N-(1-(pyrimidin-2-yl)ethyl)-N-((6-(2,2,2-trifluoroethoxy)pyridazin-3-yl)methyl)-1,8-naphthyridine-3-carboxamide], the IC50 is greater than 10000 nM with HCT116 WT cells and 783 nM in the test on HCT116 MTAP null cells.

As to `Cc1cc2cc(C(=O)N(Cc3ccc(C(F)(F)F)cn3)C(C)c3ncon3)ccc2nc1N` (stereo not drawn) [Example 795, N-(1-(1,2,4-oxadiazol-3-yl)ethyl)-2-amino-3-methyl-N-((5-(trifluoromethyl)pyridin-2-yl)methyl)quinoline-6-carboxamide], the IC50 in the test with HCT116 WT cells stood at 1390 nM; in the test with HCT116 MTAP null cells, 56 nM.

Regarding `Cc1nc(CN(C(=O)c2ccc3nc(N)c(Br)cc3c2)[C@H](C)c2ncccn2)ccc1C#N` [Example 796, (R)-2-amino-3-bromo-N-((5-cyano-6-methylpyridin-2-yl)methyl)-N-(1-(pyrimidin-2-yl)ethyl)quinoline-6-carboxamide], the IC50 in the test with HCT116 WT cells was greater than 10000 nM; with HCT116 MTAP null cells, 308 nM.
